US20190002555A1, “ANTIGEN-BINDING PROTEINS TO MARINOBUFAGENIN” (REGENERON PHARMACEUTICALS, INC., priority 2015, published 2019)
Values joined by “and” are separate entries in the source; they are usually repeats but may differ in a detail not shown here. Equal entries are not always repeated. Where two headings read alike, the source gives them in different places.

Target: T1, Na+/K+ ATPase (Homo sapiens, UniProt P05023)
T1 construct: An in-vitro cell-based assay was developed to assess the regulation of Na+/K+ ATPase by MBG using HEK293 cells; host or cells: HEK293/hnAChR α3/β4 cells
Experiment: Membrane potential assay: MBG inhibition of membrane repolarization
Type: cell-based
Description: An in-vitro cell-based assay was developed to assess the regulation of Na+/K+ ATPase by MBG using HEK293 cells. HEK293 has Na+/K+ ATPase activity and contains the α1 isoform (Kochskämper et al. 1997, Biochim. Biophys. Acta 1325: 197-208). […] HEK293 cells expressing human neuronal nicotinic acetylcholine receptors (nAChR) subunits α3 and β4 (Accession # M37981 and #NM_000750), HEK293/hnAChR α3/β4 (Millipore) were used. The nAchR heterodimer is a ligand-gated ion channel that mediates influx of Na+ upon ligand binding (Corringer et al. 2000, Annu. Rev. Pharmacol. Toxicol. 40: 431-458). […] MBG was added to inhibit the repolarization of the cell through its effects on Na^+/K^+ ATPase. Changes in the membrane potential of the cells were monitored using a fluorescent dye whose intensity increases when the cells are depolarized and decreases as the cells are repolarized.
For the bioassay, cells were detached with Enzyme Free Cell Dissociation Buffer (Millipore) seeded into 96-well assay plates at 50,000 cells/well in Opti-MEM™ assay buffer supplemented with 0.1% FBS, penicillin/streptomycin and L-glutamine (known from this point forward as Opti-MEM™), and then incubated at 37° C. in 5% CO2 overnight. […] The plate was then placed into the FLIPR^Tetra® (Molecular Devices) and kinetic readings were collected at 25° C. […]

Question: How did the IC50 (IC50 [M] of MBG (@ 100 nM Epibatidine)) turn out when `C[C@]12CC[C@H](O)C[C@@]1(O)CC[C@@H]1[C@@H]2CC[C@]2(C)[C@@H](c3ccc(=O)oc3)CC3O[C@@]312` (stereo partly drawn) [MBG, 3β, 5β-dihydroxy-14,15-epoxybufadienolide] was run?
Answer: 6.6e-07 M and 4.5e-07 M

Question: What about the IC50 (read-out: IC50 of MBG) of the same molecule?
Answer: 7e-07 M and 4.46e-07 M and 6.62e-07 M
